Entries after “also recorded” stand apart in the source; their conditions may differ.
Experiments:
rat pulmonary artery = assay: Rat pulmonary artery ring relaxation (endogenous tetrahydrobiopterin present); settings: normal rings, phenylephrine-contracted
Description: (§1) Rings (5 mm long) of rat pulmonary artery and aorta, were supported on a pair of intraluminal wires at 1 gm tension for one hour and then contracted with their EC50 phenylephrine concentration, which for pulmonary artery was 3.6×10^−8 M (derived from preliminary experiments) and for aorta was 11.8×10^−8 M (from the previously published literature). The rings were then relaxed with carbachol (10 μM). If the relaxation to carbachol was >75%, then the tissues were used to generate dose responses by addition of tetrahydrobiopterin (BH4) or the analogues. Stock BH4 was stored at −20° C. and the dilutions were prepared using saline just before adding the drug into the bath. Solutions of analogues were stored at 4° C. Cumulatively increasing concentrations of the analogues were added to the bath and the extent of relaxation was measured when it had stabilised. Another ring from the same rat was treated in parallel with the solvent for the analogue. The solvent used was NH4OH. The results are shown graphically in FIGS. 1 and 2.

rat aorta [1] = assay: Rat aorta ring relaxation (endogenous tetrahydrobiopterin present); settings: normal rings, phenylephrine-contracted
Description: as §1

rat aorta [2] = assay: BH4 depleted (DAHP) rat aorta relaxation; settings: DAHP 10^-2 M for 6 h, tetrahydrobiopterin depleted
Description: Rat pulmonary artery or aorta rings (as above) were placed in 15 ml tubes containing 2-3 ml of MEM (minimal essential medium) solution containing 0.1% bovine serum albumin, 100 U/ml penicillin and […] streptomycin. Some of the tubes in addition received diamino-hydroxy-pyrimidine (DAHP) 10^−2 M, an inhibitor of GTP cyclohydrolase, the rate-limiting step in tetrahydrobiopterin synthesis. The tubes were incubated at 37° C. for six hours. […] After the incubation with DAHP or the control incubation with the medium (MEM) alone, the rings were removed and then their relaxation in response to the analogue (or solvent NH4OH) was tested as above. Dose response curves of DAHP-treated tissues were compared to the control tissues treated in MEM alone for 6 hrs. The results are shown graphically in FIGS. 3 and 4. The above procedures were used to mimic cardiovascular disease, by treating aorta and pulmonary artery rings with an inhibitor of the enzyme GTP cyclohydrolase, which is the rate-limiting step in the formation of tetrahydrobiopterin by cells. Treatment with this inhibitor, DAHP, for 6 hours reduced endogenous tetrahydrobiopterin levels in arteries to 4% of the normal content. […] This was found in both pulmonary artery and aorta (FIGS. 3 and 4). […] The only effect seen was a contraction—the opposite to the action of WSG1002—at the highest concentration of tetrahydrobiopterin. […]

iNOS = target: T1, iNOS (Mus musculus, UniProt P29477); assay: Macrophage assay (iNOS), macrophages depleted of tetrahydrobiopterin by DAHP; assay type: cell-based
T1 construct: stimulated macrophages that produce iNOS; endogenous in cells; host or cells: primary mouse macrophages (from femur), LPS-stimulated, DAHP-treated
Description: This is a cell based assay with lipopolysaccharide stimulated macrophages in which nitric oxide is produced by the action of iNOS. Primary cultures of macrophage cells isolated from mouse femur were produced over a 7 day period. At this stage the cells were seeded into 96-well culture plates at a density of 2×10^5 cells per well. After further incubation for 24 hrs, the well media was changed and the relevant treatment was introduced. The cells were then incubated for a further 72 hrs before 50 μl was removed from each well and combined with 100 μl of Greiss reagent for NO2 determination. All treatments were performed in triplicate. In each plate, 3 wells were designated control i.e. media change only-no LPS. These samples represent basal NO2 output over 72 hrs. 3 wells were used for LPS (0.5 μg/ml) stimulation alone and 3 wells were used for LPS+0.05% DMSO. This DMSO concentration was present in all subsequent analogue treated wells. All analogues were tested at 1.0 and 10 μM. In another set of experiments, the assay was repeated with the inclusion of a step to deplete endogenous tetrahydrobiopterin as in the artery ring studies. DAHP pre-treatment was employed to deplete the macrophage cells of endogenous tetrahydrobiopterin. In these experiments, DAHP (10^−2 M) was added to the cells for 24 hrs prior to seeding into 96-well plates and for 24 hrs following the seeding procedure. Thereafter, DAHP was present throughout the analogue treatment period of 72 hrs. […] Macrophages were initially depleted of tetrahydrobiopterin by incubation with DAHP.

rat lungs = assay: Calcium ionophore-induced pulmonary vasodilation in perfused lungs of rats treated with WSG1002; assay type: in vivo; settings: 14.1 mg/kg/day s.c.
Description: Rats were maintained in a chamber containing atmospheric air at 550 mbar for 14 days.
A group of normotensive and a group of pulmonary hypertensive rats received daily subcutaneous injections of WSG1002 in a dose of 14.1 mg/kg/day during the time that they were in the hypoxic chamber. Other groups of normotensive and pulmonary hypertensive rats had no drugs and are used as control comparison groups. These studies used lungs from the four groups of rats (1) pulmonary hypertensive and treated with WSG1002, (2) normotensive and treated with WSG1002, (3) pulmonary hypertensive and not treated with WSG1002 (4) normotensive and not treated with WSG1002.
The rats lungs were perfused at constant flow through the pulmonary artery with measurement of perfusion pressure and maintained at 37° C. […]
The lungs were precontracted with the thromboxane A2 mimetic, 9,11-dideoxy-11α,9α-epoxymethanoprostaglandin F2α (U46619, 3×10^−5 M) given as a bolus dose via an injection port. […] Following return to 20% O2, the lungs were precontracted again with a bolus dose of U46619 and relaxation responses to the endothelium-dependent vasorelaxant, calcium ionophore were measured by adding it in increasing doses to the perfusate. The data was plotted as concentration-response curves from which IC50 values were calculated using Biograph program by fitting the curves to the Hill equation y=RMax/(1+(x/EC50)ˆP).

T1 sequence (P29477 whole entry): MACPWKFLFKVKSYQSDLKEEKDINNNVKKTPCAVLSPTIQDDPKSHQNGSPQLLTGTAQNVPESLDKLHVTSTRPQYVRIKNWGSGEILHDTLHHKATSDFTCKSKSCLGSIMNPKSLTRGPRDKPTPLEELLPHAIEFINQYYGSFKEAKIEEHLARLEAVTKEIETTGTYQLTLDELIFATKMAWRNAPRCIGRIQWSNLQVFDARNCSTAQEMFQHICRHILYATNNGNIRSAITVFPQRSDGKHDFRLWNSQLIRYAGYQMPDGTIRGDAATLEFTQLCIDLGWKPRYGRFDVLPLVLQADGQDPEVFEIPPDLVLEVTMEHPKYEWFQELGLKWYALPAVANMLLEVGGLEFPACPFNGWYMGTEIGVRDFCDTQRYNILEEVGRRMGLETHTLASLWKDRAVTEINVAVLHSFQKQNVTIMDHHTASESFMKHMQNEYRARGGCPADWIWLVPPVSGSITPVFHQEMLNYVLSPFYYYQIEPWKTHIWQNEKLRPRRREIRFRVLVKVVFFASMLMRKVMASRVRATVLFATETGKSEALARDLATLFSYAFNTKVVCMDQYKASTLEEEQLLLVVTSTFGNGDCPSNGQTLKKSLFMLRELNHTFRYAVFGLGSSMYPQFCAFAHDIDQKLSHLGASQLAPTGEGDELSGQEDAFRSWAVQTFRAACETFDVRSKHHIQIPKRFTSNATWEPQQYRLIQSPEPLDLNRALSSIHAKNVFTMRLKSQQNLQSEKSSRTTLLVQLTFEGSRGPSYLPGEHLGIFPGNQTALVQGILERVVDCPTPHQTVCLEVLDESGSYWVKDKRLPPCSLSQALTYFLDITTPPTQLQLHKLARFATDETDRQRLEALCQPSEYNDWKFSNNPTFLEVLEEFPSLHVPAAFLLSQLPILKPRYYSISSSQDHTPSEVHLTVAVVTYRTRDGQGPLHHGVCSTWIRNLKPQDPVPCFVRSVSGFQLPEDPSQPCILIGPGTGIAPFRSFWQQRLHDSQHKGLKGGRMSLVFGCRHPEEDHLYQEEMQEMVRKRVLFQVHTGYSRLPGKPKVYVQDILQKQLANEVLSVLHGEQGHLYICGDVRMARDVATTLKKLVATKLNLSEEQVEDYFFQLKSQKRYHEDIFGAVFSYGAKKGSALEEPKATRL

CC(=O)C1=Nc2c(nc(N)[nH]c2=O)NC1(C)C [wsg1002, 6-Acetyl-2-amino-7,7-dimethyl-7,8-dihydro-3H-pteridin-4-one]
relaxation of rat pulmonary artery rings (rat pulmonary artery): no action; also recorded: no effect | relaxation of rat aorta rings (rat aorta [1]): no action; also recorded: no effect | relaxation of rat aorta rings (rat aorta [2]): significant and physiologically important vasodilatation; also recorded: significant relaxation | activation at 1 µM (iNOS; 72 h, tested at 1 microM in macrophages, P = promotes NOS activity, read-out: iNOS effect *H155): 20 to 50% | stimulation of nitric oxide synthesis vs controls (iNOS; DAHP 10^-2 M depleted macrophages, 72 hrs): increases were statistically significant | IC50 for calcium ionophore relaxation (rat lungs; normotensive rats, untreated 1.5 μM): 1100 nM | IC50 for calcium ionophore relaxation (rat lungs; pulmonary hypertensive (hypoxic) rats, untreated 1.7 μM): 1200 nM
